Assay results from patent publication US11834450B2, “Compounds having ((3-nitrophenyl)sulfonyl)acetamide as BCL-2 inhibitors” (Eil Therapeutics, Inc., priority 2021, dated 2023).
pIC50: −log10 of the molar value. Read-outs that look alike come from different tables or passages of the source.

Key:
BCL-XL = molecular target: T1, BCL-XL (Homo sapiens, UniProt Q07817); experiment: BCL-XL TR-FRET Assay (primary PPI inhibition); type: binding; conditions: 60 min incubation; read-out: BCLxL (IC50 code, BCL-XL TR-FRET)
T1 construct: purchased BPS Bioscience #50223
T1 sequence (Q07817 whole entry): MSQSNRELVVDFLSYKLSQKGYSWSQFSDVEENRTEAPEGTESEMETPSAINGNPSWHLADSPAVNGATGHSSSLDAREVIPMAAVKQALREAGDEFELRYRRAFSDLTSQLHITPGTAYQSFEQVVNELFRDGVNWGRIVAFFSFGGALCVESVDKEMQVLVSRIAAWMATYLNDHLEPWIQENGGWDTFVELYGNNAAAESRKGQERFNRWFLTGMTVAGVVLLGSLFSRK
Procedure: BCL-XL TR-FRET Assay (BPS Bioscience, #50223) Assay Condition: The following assay concentrations and times were used: 10.5 ng BCL-XL, 5 ul of 1:100 anti-His Tb-labeled donor, 5 ul of 1:100 Dye-labeled acceptor, 5 ul of 1:80 BCL-XL Peptide Ligand, and 2 ul of test compound, with 60 min incubation time. The results of the assay were read using a Clariostar (BMG Labtech) plate reader with the following parameters: TR FRET, 340 ex/620 and 665 em; 60 μsec Delay; and 500 μsec integration.

MOLT-4 cells = experiment: Cell viability assay MOLT-4 (CellTiter-Glo); type: cell-based; conditions: Homo sapiens, read-out: MOLT-4 (CC50 code)
Procedure: (§1) Assay Condition: Used culture medium for HEK293-DMEM (PanEco, Cat #C420), for the rest of the cell lines—culture medium RPMI-1640 (PanEco, Cat #C363).
(§2) Assay Procedure: Compounds were prepared as 200× stocks with serial dilution in 100% DMSO with a final concentration of 1×. Dispersed 40 μl in 384-well plates at a concentration of 2000 cells per well for HEK293 and at a concentration of 4000 cells per well for the rest of the cell lines using a robotic station Biomek (Beckman). Before adding compounds, the cells were incubated at 37° C. (HEK293 were incubated for a day before adding compounds).
(§3) A dilution plate was prepared by pouring 78 μl of the appropriate culture medium using a robotic station Biomek (Beckman). Sequentially, using a robotic station, 2 μl of substances were taken and added to 78 μl of culture medium (dilution of compounds 40×). Took from there 10 μl and added to the plates to the cells (dilution of compounds 5×). The plates were incubated for 3 days at a temperature 37° C. After 3 days, 10 μl of CellTiter-Glo (Promega) was added to the cells and the luminescence was measured.

[1] = Cell viability assay HEK293 (CellTiter-Glo); type: cell-based; conditions: human, HEK293 cells, read-out: HEK293 (CC50 code)
Procedure: as §1, §2, §3

RS4-11 cells = experiment: Cell viability assay RS4-11 (CellTiter-Glo); type: cell-based; conditions: Homo sapiens, read-out: RS4-11 (CC50 code)
Procedure: as §1, §2, §3

BCL-2 = molecular target: T2, BCL-2 (Homo sapiens, UniProt P10415); experiment: BCL-2 TR-FRET Assay (primary PPI inhibition); type: binding; conditions: 60 min incubation; read-out: BCL2 (IC50 code, BCL-2 TR-FRET)
T2 construct: purchased BPS Bioscience #50222
T2 sequence (P10415 whole entry): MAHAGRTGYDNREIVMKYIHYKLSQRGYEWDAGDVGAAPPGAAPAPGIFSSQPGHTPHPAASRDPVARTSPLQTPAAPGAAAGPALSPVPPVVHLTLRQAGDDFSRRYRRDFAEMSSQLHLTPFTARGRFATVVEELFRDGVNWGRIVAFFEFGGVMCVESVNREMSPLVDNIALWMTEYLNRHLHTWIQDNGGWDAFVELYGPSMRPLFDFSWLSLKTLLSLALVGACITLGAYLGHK

[2] = 72 h, MOLT-4 cells, 3 days, CellTiter-Glo
[3] = 72 h, RS4-11 cells, 3 days, CellTiter-Glo

SMILES	pIC50 (BCL-XL)	CC50 (MOLT-4 cells; [2]) [µM]	CC50 at 3 days [1] [µM]	CC50 (RS4-11 cells; [3]) [µM]	pIC50 (BCL-2)	CC50 (MOLT-4 cells; MOLT-4, 72 h) [µM]	CC50 (RS4-11 cells; RS4-11, 72 h) [µM]
O=C(NS(=O)(=O)c1ccc(NCC2CCOCC2)c([N+](=O)[O-])c1)c1ccc(N2CCN(C(c3ccccc3)c3ccccc3)CC2)cc1Oc1cnc2[nH]ccc2c1 [Compound 17, 4-(4-benzhydrylpiperazin-1-yl)-N-[3-nitro-4-(tetrahydropyran-4-ylmethylamino)phenyl]sulfonyl-2-(1H-pyrrolo[2,3-b]pyridin-5-yloxy)benzamide]	< 5.40	> 10	> 25	> 0.2	< 7.30		
Cn1ncc(Oc2cc(N3CCC(CN4CCCCC4c4ccc(Cl)cc4)CC3)ccc2C(=O)NS(=O)(=O)c2ccc(NCC3CCOCC3)c([N+](=O)[O-])c2)cc1=O (centres unmarked) [Compound 65, 4-[4-[[2-(4-chlorophenyl)-1-piperidyl]methyl]-1-piperidyl]-2-(1-methyl-6-oxo-pyridazin-4-yl)oxy-N-[3-nitro-4-(tetrahydropyran-4-ylmethylamino)phenyl]sulfonyl-benzamide]	< 5.40	> 10	10 to 25	> 0.2	< 7.30		
CC1=CC[C@@H](CN2CCN(c3ccc(C(=O)NS(=O)(=O)c4ccc(NCC5CCOCC5)c([N+](=O)[O-])c4)c(Oc4cnc5[nH]ccc5c4)c3)CC2)[C@@H](c2ccc(Cl)cc2)C1 [Compound 71, 4-[4-[[(1R,6S)-6-(4-chlorophenyl)-4-methyl-cyclohex-3-en-1-yl]methyl]piperazin-1-yl]-N-[3-nitro-4-(tetrahydropyran-4-ylmethylamino)phenyl]sulfonyl-2-(1H-pyrrolo[2,3-b]pyridin-5-yloxy)benzamide]	< 5.40				7.30 to 8.00		
C[C@]1(O)CC[C@H](CN2CCN(c3ccc(C(=O)NS(=O)(=O)c4ccc(NCC5CCOCC5)c([N+](=O)[O-])c4)c(Oc4cnc5[nH]ccc5c4)c3)CC2)[C@@H](c2ccc(Cl)cc2)C1 [Compound 74, 4-[4-[[(1S,2S,4S)-2-(4-chlorophenyl)-4-hydroxy-4-methyl-cyclohexyl]methyl]piperazin-1-yl]-N-[3-nitro-4-(tetrahydropyran-4-ylmethylamino)phenyl]sulfonyl-2-(1H-pyrrolo[2,3-b]pyridin-5-yloxy)benzamide]	5.40 to 5.70	2 to 10	10 to 25	> 0.2	7.30 to 8.00		
O=C(NS(=O)(=O)c1ccc(NCC2CCOCC2)c([N+](=O)[O-])c1)c1ccc(N2CCN(C(c3ccccc3)c3ccc(Cl)cc3)CC2)cc1Oc1ccc2[nH]ccc2c1 (centres unmarked) [Compound 14, 4-[4-[(4-chlorophenyl)-phenyl-methyl]piperazin-1-yl]-2-(1H-indol-5-yloxy)-N-[3-nitro-4-(tetrahydropyran-4-ylmethylamino)phenyl]sulfonyl-benzamide]					< 7.30		
O=C(NS(=O)(=O)c1ccc(NCC2CCOCC2)c([N+](=O)[O-])c1)c1ccc(N2CCN(C[C@@H]3CC(F)CN3c3ccc(Cl)cc3)CC2)cc1Oc1cnc2[nH]ccc2c1 (stereo partly drawn) [Compound 66, 4-[4-[[(2S)-1-(4-chlorophenyl)-4-fluoro-pyrrolidin-2-yl]methyl]piperazin-1-yl]-N-[3-nitro-4-(tetrahydropyran-4-ylmethylamino)phenyl]sulfonyl-2-(1H-pyrrolo[2,3-b]pyridin-5-yloxy)benzamide]	< 5.40	2 to 10	10 to 25	> 0.2	< 7.30		
O=C(NS(=O)(=O)c1ccc(NCC2CCOCC2)c([N+](=O)[O-])c1)c1ccc(N2CCC(CN3CCCCC3c3ccc(Cl)cc3)CC2)cc1Oc1cncc(CO)c1 (centres unmarked) [Compound 64, 4-[4-[[2-(4-chlorophenyl)-1-piperidyl]methyl]-1-piperidyl]-2-[[5-(hydroxymethyl)-3-pyridyl]oxy]-N-[3-nitro-4-(tetrahydropyran-4-ylmethylamino)phenyl]sulfonyl-benzamide]	< 5.40	> 10	10 to 25	> 0.2	< 7.30		
O=C(NS(=O)(=O)c1ccc(NCC2CCOCC2)c([N+](=O)[O-])c1)c1ccc(N2CCN(C(c3ccc(F)cc3)c3ccc(F)cc3)CC2)cc1Oc1ccc2[nH]ccc2c1 [Compound 16, 4-[4-[bis(4-fluorophenyl)methyl]piperazin-1-yl]-2-(1H-indol-5-yloxy)-N-[3-nitro-4-(tetrahydropyran-4-ylmethylamino)phenyl]sulfonyl-benzamide]	< 5.40	> 10	> 25	> 0.2	< 7.30		
O=C(NS(=O)(=O)c1ccc(NCCCN2CCOCC2)c([N+](=O)[O-])c1)c1ccc(N2CCC(CN3CCCCC3c3ccc(Cl)cc3)CC2)cc1Oc1cnc2[nH]ccc2c1 (centres unmarked) [Compound 73, 4-[4-[[2-(4-chlorophenyl)-1-piperidyl]methyl]-1-piperidyl]-N [4-(3-morpholinopropylamino)-3-nitro-phenyl]sulfonyl-2-(1H-pyrrolo[2,3-b]pyridin-5-yloxy)benzamide]	5.40 to 5.70	2 to 10	10 to 25	> 0.2	7.30 to 8.00		
O=C(NS(=O)(=O)c1ccc(NCC2CCOCC2)c([N+](=O)[O-])c1)c1ccc(N2CCC(CN3C(=O)C4(CCCC4)C3c3ccc(Cl)cc3)CC2)cc1Oc1cnc2[nH]ccc2c1 (centres unmarked) [Compound 1, 4-[4-[[1-(4-chlorophenyl)-3-oxo-2-azaspiro[3.4]octan-2-yl]methyl]-1-piperidyl]-N-[3-nitro-4-(tetrahydropyran-4-ylmethylamino)phenyl]sulfonyl-2-(1H-pyrrolo[2,3-b]pyridin-5-yloxy)benzamide]	< 5.40	2 to 10	> 25	> 0.2	7.30 to 8.00		
O=C(NS(=O)(=O)c1ccc(NCC2CCOCC2)c([N+](=O)[O-])c1)c1ccc(N2CCN(C[C@H]3Cc4ccccc4CN3C(=O)c3cccs3)CC2)cc1Oc1cnc2[nH]ccc2c1 [Compound 34, N-[3-nitro-4-(tetrahydropyran-4-ylmethylamino)phenyl]sulfonyl-2-(1H-pyrrolo[2,3-b]pyridin-5-yloxy)-4-[4-[[(3R)-2-(thiophene-2-carbonyl)-3,4-dihydro-1H-isoquinolin-3-yl]methyl]piperazin-1-yl]benzamide]	5.40 to 5.70				7.30 to 8.00		
O=C(NS(=O)(=O)c1ccc(NCC2CCOCC2)c([N+](=O)[O-])c1)c1ccc(N2CCC(CN3C(=O)C4(CCCC4)C3c3ccc(Cl)cc3)CC2)cc1Oc1ccc2[nH]ccc2c1 (centres unmarked) [Compound 10, 4-[4-[[1-(4-chlorophenyl)-3-oxo-2-azaspiro[3.4]octan-2-yl]methyl]-1-piperidyl]-2-(1H-indol-5-yloxy)-N-[3-nitro-4-(tetrahydropyran-4-ylmethylamino)phenyl]sulfonyl-benzamide]			≤ 10		< 7.30	> 10	> 0.2
O=C(NS(=O)(=O)c1ccc(NCC2CCOCC2)c([N+](=O)[O-])c1)c1ccc(N2CCN(C[C@@H]3CC(F)(F)CN3c3ccc(Cl)cc3)CC2)cc1Oc1cnc2[nH]ccc2c1 [Compound 81, 4-[4-[[(2S)-1-(4-chlorophenyl)-4,4-difluoro-pyrrolidin-2-yl]methyl]piperazin-1-yl]-N-[3-nitro-4-(tetrahydropyran-4-ylmethylamino)phenyl]sulfonyl-2-(1H-pyrrolo[2,3-b]pyridin-5-yloxy)benzamide]		2 to 10	10 to 25	> 0.2			
CC1=CC[C@@H](c2ccc(Cl)cc2)[C@H](CN2CCN(c3ccc(C(=O)NS(=O)(=O)c4ccc(NCC5CCOCC5)c([N+](=O)[O-])c4)c(Oc4cnc5[nH]ccc5c4)c3)CC2)C1 [Compound 60, 4-[4-[[(1R,6R)-6-(4-chlorophenyl)-3-methyl-cyclohex-3-en-1-yl]methyl]piperazin-1-yl]-N-[3-nitro-4-(tetrahydropyran-4-ylmethylamino)phenyl]sulfonyl-2-(1H-pyrrolo[2,3-b]pyridin-5-yloxy)benzamide]	< 5.40				< 7.30		
CCCC(c1ccc(Br)cc1)N1CCN(c2ccc(C(=O)NS(=O)(=O)c3ccc(NCC4CCOCC4)c([N+](=O)[O-])c3)c(Oc3ccc4[nH]ccc4c3)c2)CC1 (centres unmarked) [Compound 15, 4-[4-[1-(4-bromophenyl)butyl]piperazin-1-yl]-2-(1H-indol-5-yloxy)-N-[3-nitro-4-(tetrahydropyran-4-ylmethylamino)phenyl]sulfonyl-benzamide]	< 5.40				< 7.30		
